16 compounds from US5098900A, “3(2H)pyridazinone, process for its preparation and anti-allergic agent containing it” (Nissan Chemical Industries Ltd., priority 1984, dated 1992) can be followed below.

Like-named read-outs stand apart in the source and are kept apart here.

Data set [1] deals with antigen-induced anaphylactic bronchoconstriction. The data set is described as follows: Effect on anaphylactic bronchoconstriction in passively sensitized guinea-pig. The class given is in vivo. As to conditions: 2 mg/kg, i.v. Here is the method: (iii) Effect on anaphylactic bronchoconstriction in passively sensitized guinea-pig
Male guinea-pigs (350-450 g) were passively sensitized with intravenous (i.v.) injection of 0.125 ml rabbit anti-EA serum (Cappel Laboratories) 1 day preceding the experiment. […] The right jugular vein was cannulated for the administration of the all agents and trachea was cannulated to record total pulmonary resistance. Guinea-pigs were artificially ventilated by a small animal respirator (Shinano, Model SN-480-7) set at a stroke volume of 4-5 ml and a rate of 50 breaths per min. […] The increase in air overflow volume was expressed as a percentage of the maximum bronchoconstriction obtained by clamping off the trachea. Following surgical preparation, the animals were pretreated with indomethacin (1.0 mg/kg, 10 min), pyrilamine (2 mg/kg, 6 min) and propranolol (0.1 mg/kg, 5 min) prior to the EA challenge (0.1 or 10 mg/kg). All test compounds, 2 mg/kg in 3% Tween 80 or 3% PEG-400, were administered 1 min before the EA challenge. Inhibition (%) of bronchoconstriction was determined as follows Inhibition (%)=(1.0% -maximum bronchoconstriction in test/% maximum bronchoconstriction in control) ×100.
In the Table, the dose of EA was 10 mg/kg, and each compound was dissolved or suspended in 3% Tween 80.
In the Table, the dose of EA was 0.1 mg/kg.
*: PEG represents polyethylene glycol400.

The test system of data set [2] is LTC4. In words: LTC4 antagonism in isolated guinea-pig trachea (LTC4-induced contraction). Conditions: Cavia porcellus, 5 min, read-out: LTC4 antagonism. The class given is cell-based. Here is the method:
(ii) LTC4 and LTD4 antagonisms in guinea-pig trachea
Antagonism for LTC4 and LTD4 were determined in isolated guinea-pig trachea prepared as spiral strip. 10 Tracheal preparations were suspended under 1 g tension in […] and they were incubated for 1 hr prior to use. Contractile responses to LTC4 (2×10^-8 g/ml) and LTD4 (2×10^-8 g/ml) were obtained after the maximal response to histamine (10^-4 M). Test compounds dissolved in 100% dimethyl sulfoxide were added to the organ baths (final concentration of 10^-5 g/ml) 5 min prior to LTC4 and LTD4 addition, and then contractile responses to LTC4 and LTD4 were compared with those of control which was obtained from a paired trachea in the absence of test compounds. LTC4 - and LTD4 -induced contractions were expressed as a percentage of the maximal response to histamine. The antagonism was determined as follows: Antagonism (%)=(1.0-% contraction in test/% contraction in control)×100

Data set [3] deals with SRS-A. In words: SRS-A antagonism in guinea-pig ileum (SRS-A-induced contraction). Conditions: 1 min, test compound 5×10^-7 g/ml, isolated guinea-pig ileum; for inhibition at 0.5 µg/mL: Cavia porcellus. In kind it is cell-based. Here is the method:
(i) SRS-A antagonism in quinea-pig ileum
SRS-A antagonism was determined against the contraction induced by SRS-A in isolated guinea-pig ileum. The SRS-A was prepared in accordance with the method of Brocklehurst (J. Physiol., 151, 416, 1960) and Kohno and Parker (J. Immunol., 125, 446, 1980). Adult male guinea-pigs (200-250 g) were sensitized with chick egg albumin (EA), 100 mg subcutaneously and 100 mg intraperitoneally. Three weeks later the animals were killed by a blow on the head and lungs were perfused free of blood with Tyrode solution passed through the right ventricle. Isolated lungs were chopped into pieces (1 mm^3) by a scissors in Tyrode solution and filtrated with gauze, and then 1.0-1.3 g of chopped lung fragments were distributed into individual tubes (9.7 ml of Tyrode solution/tube). EA solution (0.3 ml) at a 3×10^-4 g/ml final concentration was added to the tubes and incubated for 20 min at 37° C., and then the supernatant was used for the SRS-A antagonism.
Assay for SRS-A antagonism was performed as follows: Ileum preparations isolated from male guinea-pig (300-400 g) were suspended under 0.5 g tension in organ baths (5 ml) containing Tyrode solution maintained at 30° C. and gassed with 95% O2 +5% CO2. After the repeated responses to histamine (10^-7 g/ml) was established, the contractile response to SRS-A (0.5 ml) was carried out in the presence of 10^-6 M atropine and 10^-6 M pyrilamine. Test compounds dissolved in 100% dimethyl sulfoxide were added to the organ baths (final concentration of 5×10^-7 g/ml) 1 min prior to the SRS-A addition, and SRS-A-induced contractions were compared with those of control (SRS-A-induced contraction before the treatment). The SRS-A antagonism (%) =[1.0 - (SRS-A-induced contraction in test compound)/control]×100

Data set [4] has as its system LTD4. In words: LTD4 antagonism in isolated guinea-pig trachea (LTD4-induced contraction). In kind it is cell-based. Conditions: Cavia porcellus, 5 min, test compound 10^-5 g/ml, LTD4 2×10^-8 g/ml. An outline of the steps: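 Spiral strips of isolated guinea-pig trachea were held at 1 g tension in organ baths and incubated for 1 hr. After a maximal histamine (10^-4 M) response, test compounds in 100% dimethyl sulfoxide were added 5 min before LTD4 (2×10^-8 g/ml). Contraction, as percent of histamine maximum, was compared with a paired untreated control trachea to give antagonism (%).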

In data set [5] the test system is LTD4. In words: Effect on bronchoconstriction induced by intravenous administration of LTD4. Conditions: 2 mg/kg, i.v., in Tween 80; LTD4 2 μg/kg i.v. The class given is in vivo, guinea-pig. Here is the method: (iv) Effect on bronchoconstriction induced by intravenous (i.v.) administration of LTD4
Bronchoconstrictions induced by i.v. administration of LTD4 in guinea-pigs (350-450 g) were measured as described in anaphylactic bronchoconstriction. Guinea-pigs were anaesthetized with urethane (1.5 g/kg) and the trachea was cannulated to record total pulmonary resistance. The right jugular vein was cannulated for the administration of the all agents. The guinea-pigs were artificially ventilated by a small respirator set at a stroke volume of 5 ml and a rate of 50 breaths per min. LTD4 (2 μg/kg)-induced bronchoconstriction was shown by the increase in air overflow volume. After the response to histamine (5 μg/kg) was checked, the first response to LTD4 was obtain-d as control. […] Inhibition (%) of the bronchoconstriction was determined as follows: Inhibition (%) =(1.0 -peak value in the second response/peak value in the first response)×100.

The test system of data set [6] is ddY strain male mice. The data set is described as follows: Acute toxicity test, method-(1), oral administration. The class given is in vivo. As to conditions: 300 mg/kg, P.O., 7 days after administration. Here is the method: The lethal ratio was determined in ddY strain male mice (4 weeks old) at 7 days after the oral administration of test compounds.
Setting [7] is: test compound 10^-5 g/ml, LTC4 2×10^-8 g/ml, guinea-pig trachea.

With `CCCOc1ccc(CNc2cnn(C(C)(C)C)c(=O)c2Cl)cc1` [compound 11], in data set [1] (EA 10 mg/kg, 3% Tween 80), the “Inhibition of anaphylactic bronchoconstriction” value turned out to be 21%. In addition, the inhibition at 10 µg/mL in data set [2] (setting [7]) is 25%. Besides, the inhibition at 0.5 µg/mL in data set [3] is 74%.
For the compound `Cc1ccc(CNc2cnn(C(C)(C)C)c(=O)c2Cl)cc1` [Compound No. 3], the inhibition at 10 µg/mL in data set [2] (setting [7]) was found to be 42%; in data set [4] it was 50%. The “Inhibition of LTD4-induced bronchoconstriction” value in data set [5] amounted to 60.6%. This compound also registered an inhibition at 0.5 µg/mL in data set [3] of 64%.
As to `CC(C)(C)n1ncc(NCc2ccc(Cl)cc2)c(Cl)c1=O` [compound 22], the “Inhibition of anaphylactic bronchoconstriction” value in data set [1] (EA 10 mg/kg, 3% Tween 80) was 23%. Besides, the inhibition at 10 µg/mL in data set [2] (setting [7]) stood at 20%. In data set [3], this compound showed an inhibition at 0.5 µg/mL of 76%.
As for `Cc1cccc(CNc2cnn(C(C)(C)C)c(=O)c2Cl)c1` [Compound No. 2], the “Inhibition of anaphylactic bronchoconstriction” value in data set [1] (EA 10 mg/kg, 3% Tween 80) is 21%. For the same compound, the inhibition at 10 µg/mL in data set [2] (setting [7]) came out at 84%. The same compound displayed an inhibition at 0.5 µg/mL in data set [3] of 47%.
Consider `COCCNC(=O)c1ccc(CNc2cnn(C(C)(C)C)c(=O)c2Cl)cc1` [compound 55], for which, in data set [2] (setting [7]), the inhibition at 10 µg/mL amounted to 14%. In data set [3], the inhibition at 0.5 µg/mL is 12%.
With `CCN(CC)Cc1ccc(CNc2cnn(C(C)(C)C)c(=O)c2Cl)cc1` [compound 32], in data set [2] (setting [7]), the inhibition at 10 µg/mL amounted to 20%. The compound also gave an inhibition at 0.5 µg/mL in data set [3] of 18%.
For the compound `COc1ccc(CNc2cnn(C(C)(C)C)c(=O)c2Cl)cc1` [Compound No. 9], in data set [1] (EA 10 mg/kg, 3% Tween 80), the “Inhibition of anaphylactic bronchoconstriction” value stood at 35%. Further, in data set [5], the “Inhibition of LTD4-induced bronchoconstriction” value was found to be 38%. This compound yielded an inhibition at 0.5 µg/mL in data set [3] of 72%.
In the case of `CCOC(=O)c1ccc(CNc2cnn(C(C)(C)C)c(=O)c2Cl)cc1` [Compound No. 52], in data set [1] (EA 10 mg/kg, 3% Tween 80), the “Inhibition of anaphylactic bronchoconstriction” value worked out at 30%. The compound further came in with an inhibition at 0.5 µg/mL in data set [3] of 72%.
Consider `CSc1ccc(CNc2cnn(C(C)(C)C)c(=O)c2Cl)cc1` [compound 21], for which the inhibition at 10 µg/mL in data set [2] (setting [7]) was 36%. The same compound returned an inhibition at 0.5 µg/mL in data set [3] of 77%.
Regarding `CN(C)c1ccc(CNc2cnn(C(C)(C)C)c(=O)c2Cl)cc1.Cl` [Compound No. 44, 4-Chloro-5-(4-dimethylaminobenzylamino)-2-t-butyl-3-(2H)pyridazinone hydrochloride], the “Inhibition of anaphylactic bronchoconstriction” value in data set [1] (EA 10 mg/kg, 3% Tween 80) was 72%. Besides, the “Inhibition of LTD4-induced bronchoconstriction” value in data set [5] is 72.5%. This compound also yielded an SRS-A antagonism in data set [3] of 55%.
For the compound `CCCc1c(OCC(O)COc2ccc3c(=O)cc(C(=O)O)oc3c2CCC)ccc(C(C)=O)c1O` (stereo not shown) [FPL-55712, reference compound], the “Inhibition of anaphylactic bronchoconstriction” value in data set [1] (EA 0.1 mg/kg, Tween 80) is on record as 60%; in data set [1] (EA 10 mg/kg, 3% Tween 80), 27%. Besides, the inhibition at 10 µg/mL in data set [2] was 100%; in data set [4] it was 88%. In addition, the “Inhibition of LTD4-induced bronchoconstriction” value in data set [5] turned out to be 100%. In data set [3], the inhibition at 0.5 µg/mL came to 88%.
With `CC(C)(C)n1ncc(NCc2ccc(N3CCOCC3)cc2)c(Cl)c1=O` [compound 30], the inhibition at 10 µg/mL in data set [2] (setting [7]) was 13%. Moreover, the inhibition at 0.5 µg/mL in data set [3] was determined as 53%.
With `CCc1ccc(CNc2cnn(C(C)(C)C)c(=O)c2Cl)cc1` [Compound No. 4], the Lethal ratio in data set [6] is 0/3. Also, the inhibition at 10 µg/mL in data set [2] (setting [7]) was 55%. Further, the inhibition at 0.5 µg/mL in data set [3] is 73%.
As to `CC(C)(C)n1ncc(NCc2ccccc2)c(Cl)c1=O` [Compound No. 1], the “Inhibition of LTD4-induced bronchoconstriction” value in data set [5] was found to be 23%. Further, in data set [3], the inhibition at 0.5 µg/mL was determined as 14%.
In the case of `COc1ccc(CNc2cnn(C(C)(C)C)c(=O)c2Cl)cc1C` [Compound No. 12], the inhibition at 10 µg/mL in data set [2] (setting [7]) is 67%. The inhibition at 0.5 µg/mL in data set [3] stood at 73%.
Regarding `CCOc1ccc(CNc2cnn(C(C)(C)C)c(=O)c2Cl)cc1` [Compound No. 10], the Lethal ratio in data set [6] is on record as 0/3. Besides, in data set [1] (EA 10 mg/kg, 3% Tween 80), the “Inhibition of anaphylactic bronchoconstriction” value is 31%. For the same compound, the inhibition at 10 µg/mL in data set [2] (setting [7]) was 50%. The inhibition at 0.5 µg/mL in data set [3] was determined as 40%.
